Data from PubChem BioAssay AID1963981 (Molecular Pharmacology Branch, DTP, NCI, 2024).

System: 354836-022-R-J1-PDC multicell spheroid viability
Experiment: Anticancer human tumor 354836-022-R-J1-PDC patient-derived head and neck squamous cell carcinoma cell line growth inhibition [PI3K]
Conditions: for IC50: curve of first compound; for viability, T/C: stronger effect = lower value
From the text: Combinatorial screen of targeted agents with the PI3K inhibitors inavolisib, alpelisib, duvelisib, and copanlisib in multi-cell type tumor spheroids
A high-throughput screen of multi-cell type tumor spheroids was designed to identify active combinations of targeted small molecules and PI3K pathway inhibitors. Complex spheroids include a stromal component modeled by human endothelial cells (HUVEC) and fibroblasts modeled by human mesenchymal stem cells (MSCs). The concentration ranges selected for each drug and investigational agent were based upon clinically achievable concentrations if the clinical Cmax of the agent was known.
Compounds. The drugs and investigational agents: inavolisib (NSC800729), alpelisib (NSC765974), duvelisib (NSC772469), copanlisib (NSC816437), ipatasertib (NSC767898), afuresertib (NSC778305), talazoparib (NSC767125), sapanisertib (NSC764658), selumetinib (NSC741078), tovorafenib (DAY101, NSC766906), vemurafenib (NSC761431), ravoxertinib (NSC781343), sotorasib (NSC818433), MRTX1133 (NSC 836407), abemaciclib (NSC 768073), palbociclib (NSC758247), venetoclax (NSC 766270), SY5609 (NSC837396), enzalutamide (NSC755605), and darolutamide (NSC825331), were obtained from the National Cancer Institute (NCI) Developmental Therapeutics Program Chemical Repository. The FDA-approved anticancer drug set is available from the NCI Developmental Therapeutics Program. […] The stock solutions were prepared in dimethyl sulfoxide (DMSO, Sigma-Aldrich, St. Louis, MO, cat. D2650) at 800-fold the tested concentration and stored at -70 degrees C prior to their use. All drugs and investigational agents were tested over a range starting from a high concentration at or near the clinical Cmax and decreasing in half-log increments. If the clinical Cmax for an agent had not been determined, the highest concentration tested was 10 microM.
Cell Culture. All cells were maintained in an incubator at 37 degrees C and 5% CO2 with 95% humidity. The PDC lines were cultured according to standard operating procedures established by the NCI PDMR (https://pdmr.cancer.gov/sops/default.htm). All PDCs were thawed and cultured in Matrigel-coated flasks prepared with a working solution of 1X Ham's F-12 nutrient mix, without supplementation (Invitrogen, Waltham, MA, cat. 11765054), 100 U/mL penicillin-streptomycin (Invitrogen, cat. 15140122), and 2.5% Matrigel (Corning Inc., Corning, NY, cat. 354248) for the first three passages. The 354836-022-R-J1-PDC, 475296-252-R-J1-PDC, and 997726-040-R-J2-PDC lines were cultured in 6A media, which includes advanced DMEM/F-12 (Thermo Fisher Scientific, cat. 12634028), 10 mM HEPES (Thermo Fisher Scientific, cat. 15630080), 1X GlutaMAX supplement (Thermo Fisher Scientific, cat. 35050061), 0.1 mg/mL primocin (InvivoGen, San Diego, CA, cat. ant-pm-2), 10% defined fetal bovine serum, heat inactivated (HyClone Laboratories Inc., Logan, UT, cat. SH30070.03HI), 50% L-WRN conditioned media (ATCC, cat. CRL-3276), 1.25 mM N-Acetyl-L-cysteine (Sigma-Aldrich, cat. A9165), 10 mM nicotinamide (Sigma-Aldrich, cat. N0636), 1X B-27 supplement (Thermo Fisher Scientific, cat. 17504044), 1X N-2 supplement (Thermo Fisher Scientific, cat. 17502048), and 10 microM Y-27632 dihydrochloride (Tocris Bioscience, Bristol, United Kingdom, cat. 1254). The 624824-186-R-J2-PDC line was cultured in 6C/Colon 1B media, which includes all 6A media components plus 50 ng/mL human EGF recombinant protein (Thermo Fisher Scientific, cat. PHG0311). […]
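Further: spheroids exposed to agents for seven days before the viability read.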

IC50 (second compound 0.0316 µM): > 10 µM
IC50 (second compound 0.1 µM): > 10 µM
IC50 (second compound 0.316 µM): > 10 µM
IC50 (second compound 1 µM): > 10 µM
IC50 (second compound 3.16 µM): > 10 µM
IC50 (second compound 10 µM): > 10 µM
Structure (SMILES): C#Cc1c(F)ccc2cc(O)cc(-c3ncc4c(N5CC6CCC(C5)N6)nc(OCC56CCCN5CC(F)C6)nc4c3F)c12 (configuration not stated) + CC(Nc1ncnc2nc[nH]c12)c1cc2cccc(Cl)c2c(=O)n1-c1ccccc1
viability, T/C (second compound 0.0316 µM, first compound 0.0316 µM): 94.8%
viability, T/C (second compound 0.0316 µM, first compound 0.1 µM): 85%
viability, T/C (second compound 0.0316 µM, first compound 0.316 µM): 88.6%
viability, T/C (second compound 0.0316 µM, first compound 1 µM): 105%
viability, T/C (second compound 0.0316 µM, first compound 3.16 µM): 85.5%
viability, T/C (second compound 0.0316 µM, first compound 10 µM): 96.4%
viability, T/C (second compound 0.1 µM, first compound 0.0316 µM): 84.9%
viability, T/C (second compound 0.1 µM, first compound 0.1 µM): 105%
viability, T/C (second compound 0.1 µM, first compound 0.316 µM): 96.4%
viability, T/C (second compound 0.1 µM, first compound 1 µM): 96.2%
viability, T/C (second compound 0.1 µM, first compound 3.16 µM): 110%
viability, T/C (second compound 0.1 µM, first compound 10 µM): 102%
viability, T/C (second compound 0.316 µM, first compound 0.0316 µM): 85.4%
viability, T/C (second compound 0.316 µM, first compound 0.1 µM): 110%
viability, T/C (second compound 0.316 µM, first compound 0.316 µM): 103%
viability, T/C (second compound 0.316 µM, first compound 1 µM): 108%
viability, T/C (second compound 0.316 µM, first compound 3.16 µM): 98.3%
viability, T/C (second compound 0.316 µM, first compound 10 µM): 89.9%
viability, T/C (second compound 1 µM, first compound 0.0316 µM): 91.1%
viability, T/C (second compound 1 µM, first compound 0.1 µM): 86.9%
viability, T/C (second compound 1 µM, first compound 0.316 µM): 100%
viability, T/C (second compound 1 µM, first compound 1 µM): 92.3%
viability, T/C (second compound 1 µM, first compound 3.16 µM): 96.4%
viability, T/C (second compound 1 µM, first compound 10 µM): 74.9%
viability, T/C (second compound 3.16 µM, first compound 0.0316 µM): 95.4%
viability, T/C (second compound 3.16 µM, first compound 0.1 µM): 105%
viability, T/C (second compound 3.16 µM, first compound 0.316 µM): 96.3%
viability, T/C (second compound 3.16 µM, first compound 1 µM): 110%
viability, T/C (second compound 3.16 µM, first compound 3.16 µM): 99%
viability, T/C (second compound 3.16 µM, first compound 10 µM): 70%
viability, T/C (second compound 10 µM, first compound 0.0316 µM): 95.3%
viability, T/C (second compound 10 µM, first compound 0.1 µM): 82.5%
viability, T/C (second compound 10 µM, first compound 0.316 µM): 84.5%
viability, T/C (second compound 10 µM, first compound 1 µM): 80.8%
viability, T/C (second compound 10 µM, first compound 3.16 µM): 78.4%
viability, T/C (second compound 10 µM, first compound 10 µM): 75.1%
